Experimental data as given in patent US20100086931A1, “METHOD FOR ASSAYING ACTION OF ANTITUMOR AGENT USING DECREASE IN GENE EXPRESSION LEVEL AS INDEX” (Eisai R&D Management Co., Ltd., priority 2007, published 2010).

Tested on: human colon carcinoma cell strain WiDr
Assay: Microarray analysis (Human Genome U133 plus 2.0 array) of mRNA expression in WiDr cells treated with compound A
Assay type: cell-based
Conditions: 2.8 nM, 6 h, ratio to control
Experimental: Microarray analysis (Human Genome U133 plus 2.0 array: Affymetrix) was carried out using RNA purified from human colon carcinoma cell strain WiDr treated with 2.8 nM and 14 nM of (8E,12E,14E)-7-((4-Cycloheptylpiperazin-1-yl)carbonyl)oxy-3,6,16,21-tetrahydroxy-6,10,12,16,20-pentamethyl-18,19-epoxytricosa-8,12,14-trien-11-olide (hereinafter also referred to as “compound A”) for six hours.
WiDr cells were first suspended in RPMI1640 medium (containing 10% FBS, penicillin, and streptomycin) and seeded in a 10 cm dish (2×10^6 cells/dish). After an overnight culture in an incubator with 5% carbon dioxide gas at 37° C., the medium was changed with medium containing 2.8 nM and 14 nM of compound A or containing vehicle alone. After cultured additional six hours, TRI reagent (SIGMA) was added to cells, and the cells were harvested. RNA was purified in accordance with the protocol of TRI reagent, followed by further purification with RNeasy (QIAGEN). Absorbance at 260 nm was measured to quantify an amount of RNA.
Subsequently, single stranded cDNA synthesis, double stranded cDNA synthesis, biotin-labeled cRNA synthesis, and cRNA fragmentation in order were carried out from 5-10 μg (WiDr 10 μg, PBMC 5 μg) of total RNA from the control cells and the treated cells, by using One-Cycle Target Labeling and Control Reagents (Affymetrix). cRNA probe was used for hybridization with Human Genome U133 Plus 2.0 Array (Affymetrix). The array was then washed and stained, and luminescence intensity was measured by a scanner.
The RMA method was applied to 33 of .cel files obtained in the microarray experiment and log signal intensity at a gene level normalized with log signal intensity at a probe level was obtained. By subtracting the mean between control 1 and control 3 from the mean between log signal intensity 1 and log signal intensity 3 for each case, the log signal intensity was converted into a log signal ratio to the control. A t-test was conducted between each log signal intensity and control, and candidate genes were narrowed down in the basis of a p-value, a log signal ratio, and a signal value. Specifically, genes showing that the P value was 5% or less; the expression level in the untreated (control) is 100 or more by signal value; and the expression level when treated with both 2.8 nM and 14 nM of compound A is, compared to the control, 25% or less, were picked out. The software used is R2.2.1 (http://www.r-project.org/), affy package 1.8.1 (http://www.bioconductor.org).
Genes showing that, by the treatment with compound A, the P value was 5% or less; the expression level in the untreated (control) is 100 or more by signal value; and the expression level when treated with both 2.8 nM and 14 nM of compound A is, compared to the control, 25% or less, and results thereof were shown in Table 1. Probe ID used in Table 1 represents Human Genome U133 Plus 2.0 Array Probeset ID. In Table 1, for each gene evaluated, gene name (Gene Name), abbreviated name (Gene Symbol), accession number (Accession), alias name (Synonym), Probe set number in Human Genome U133 Plus 2.0 Array (Human Genome U133 Plus 2.0 Array Probeset ID), the expression level upon the six-hour treatment with 2.8 nM of E7107 (2.8 nM (6 h)), and the expression level upon the six-hour treatment with 14 nM of E7107 (14 nM (6 h)) were respectively shown.

CCC(O)C(C)C1OC1CC(C)(O)/C=C/C=C(\C)C1OC(=O)CC(O)CCC(C)(O)C(OC(=O)N2CCN(C3CCCCCC3)CC2)/C=C/C1C (stereo not drawn) [E7107, (8E,12E,14E)-7-((4-Cycloheptylpiperazin-1-yl)carbonyl)oxy-3,6,16,21-tetrahydroxy-6,10,12,16,20-pentamethyl-18,19-epoxytricosa-8,12,14-trien-11-olide]
ADPRHL2 mRNA expression level (223097_at): 0.23 | ANGEL2 mRNA expression level (221825_at): 0.22 | ARMC8 mRNA expression level (203486_s_at): 0.20 | ATP2A2 mRNA expression level (212361_s_at): 0.24 | ATP2B1 mRNA expression level (212930_at): 0.20 | ATP6V0A2 mRNA expression level (205704_s_at): 0.17 | BPTF mRNA expression level (232909_s_at): 0.20 | C1orf63 mRNA expression level (209006_s_at): 0.15 | C1orf79 mRNA expression level (223774_at): 0.16 | C1orf82 mRNA expression level (222893_s_at): 0.20 | C5orf28 mRNA expression level (219029_at): 0.20 | C6orf136 mRNA expression level (227455_at): 0.23 | C7orf23 mRNA expression level (204215_at): 0.12 | C7orf36 mRNA expression level (223433_at): 0.16 | C7orf49 mRNA expression level (220949_s_at): 0.20 | C12orf32 mRNA expression level (225837_at): 0.19 | C15orf40 mRNA expression level (1552310_at): 0.17 | C17orf80 mRNA expression level (223351_at): 0.22 | C20orf112 mRNA expression level (225224_at): 0.24 | CARD10 mRNA expression level (210026_s_at): 0.23 | CASC5 mRNA expression level (228323_at): 0.24 | CCDC14 mRNA expression level (225017_at): 0.21 | CCNE2 mRNA expression level (205034_at): 0.22 | CDC6 mRNA expression level (203967_at): 0.13 | CDC7 mRNA expression level (204510_at): 0.18 | CDNA FLJ34214 fis, clone FCBBF3021807 mRNA expression level (227087_at): 0.24 | CLDND1 mRNA expression level (208925_at): 0.16 | CLIP1 mRNA expression level (201975_at): 0.24 | DAPK1 mRNA expression level (203139_at): 0.09 | DNAJC16 mRNA expression level (212908_at): 0.24 | E2F7 mRNA expression level (228033_at): 0.22 | EHBP1 mRNA expression level (212653_s_at): 0.16 | ELL3 mRNA expression level (219518_s_at): 0.24 | ERCC3 mRNA expression level (202176_at): 0.25 | EVI1 mRNA expression level (226420_at): 0.17 | FAM86C mRNA expression level (65585_at): 0.19 | FANCL mRNA expression level (218397_at): 0.15 | FBXL5 mRNA expression level (209004_s_at): 0.19 | FCHO2 mRNA expression level (228220_at): 0.24 | FGF19 mRNA expression level (223761_at): 0.10 | FKSG44 mRNA expression level (227964_at): 0.11 | FLJ20628 mRNA expression level (221229_s_at): 0.16 | FRY mRNA expression level (204072_s_at): 0.23 | Full-length cDNA clone CS0DL007YI24 of B cells (Ramos cell line) mRNA expression level (226648_at): 0.22 | GRHL1 mRNA expression level (222830_at): 0.24 | HDAC4 mRNA expression level (204225_at): 0.21 | INTS7 mRNA expression level (222250_s_at): 0.24 | IREB2 mRNA expression level (225892_at): 0.12 | IXL mRNA expression level (225708_at): 0.20 | JAGN1 mRNA expression level (223104_at): 0.15 | JUB mRNA expression level (225806_at): 0.25 | KCNE3 mRNA expression level (227647_at): 0.20 | KIAA0323 mRNA expression level (212355_at): 0.23 | KIAA0776 mRNA expression level (212633_at): 0.18 | KIAA0859 mRNA expression level (212405_s_at): 0.17 | KIF2C mRNA expression level (211519_s_at): 0.20 | KIF21A mRNA expression level (226003_at): 0.18 | KIN mRNA expression level (205664_at): 0.22 | KLHL12 mRNA expression level (225068_at): 0.20 | LIPG mRNA expression level (219181_at): 0.21 | LOC51315 mRNA expression level (218303_x_at): 0.11 | LOC124512 mRNA expression level (225808_at): 0.15 | MASTL mRNA expression level (228468_at): 0.23 | MCM10 mRNA expression level (220651_s_at): 0.11 | METTL3 mRNA expression level (209265_s_at): 0.24 | METTL4 mRNA expression level (219698_s_at): 0.22 | MKRN1 mRNA expression level (201285_at): 0.20 | MLL2 mRNA expression level (227527_at): 0.21 | MND1 mRNA expression level (223700_at): 0.17 | MYOHD1 mRNA expression level (225947_at): 0.20 | NCOA5 mRNA expression level (225145_at): 0.20 | NIN mRNA expression level (225921_at): 0.22 | NOC3L mRNA expression level (218889_at): 0.23 | NPC1 mRNA expression level (202679_at): 0.24 | NR2C1 mRNA expression level (204791_at): 0.15 | NUPL1 mRNA expression level (223984_s_at): 0.12 | NUPL2 mRNA expression level (204003_s_at): 0.21 | ORC5L mRNA expression level (204957_at): 0.23 | PAXIP1 mRNA expression level (212825_at): 0.23 | PCGF1 mRNA expression level (210023_s_at): 0.21 | PHACTR4 mRNA expression level (226823_at): 0.25 | PHF20L1 mRNA expression level (226942_at): 0.24 | PIK3C3 mRNA expression level (204297_at): 0.23 | PLEKHA5 mRNA expression level (220952_s_at): 0.16 | PMS1 mRNA expression level (213677_s_at): 0.22 | POLD3 mRNA expression level (212836_at): 0.16 | POLR3E mRNA expression level (222490_at): 0.18 | PPM1B mRNA expression level (209296_at): 0.24 | PPWD1 mRNA expression level (213483_at): 0.21 | RAD54B mRNA expression level (219494_at): 0.18 | RBBP6 mRNA expression level (212783_at): 0.17 | RBM17 mRNA expression level (224780_at): 0.21 | RBMS1 mRNA expression level (209868_s_at): 0.17 | REPS1 mRNA expression level (224366_s_at): 0.22 | RFC4 mRNA expression level (204023_at): 0.13 | RIF1 mRNA expression level (226821_at): 0.13 | RPS6KC1 mRNA expression level (218909_at): 0.23 | SFXN1 mRNA expression level (230069_at): 0.17 | SHPRH mRNA expression level (226366_at): 0.19 | SLC17A5 mRNA expression level (223441_at): 0.24 | SLC25A19 mRNA expression level (223222_at): 0.25 | SLC37A1 mRNA expression level (218928_s_at): 0.22 | SMEK2 mRNA expression level (226230_at): 0.19 | SMUG1 mRNA expression level (218685_s_at): 0.24 | STAMBPL1 mRNA expression level (227606_s_at): 0.19 | STXBP3 mRNA expression level (203310_at): 0.19 | SYTL2 mRNA expression level (232914_s_at): 0.18 | TAF4 mRNA expression level (213090_s_at): 0.21 | TMEM177 mRNA expression level (218897_at): 0.24 | TNS3 mRNA expression level (217853_at): 0.20 | TRIM31 mRNA expression level (210159_s_at): 0.25 | TRIP4 mRNA expression level (203732_at): 0.21 | TSEN2 mRNA expression level (219581_at): 0.13 | TTC4 mRNA expression level (46167_at): 0.22 | TUBGCP3 mRNA expression level (203690_at): 0.16 | Transcribed locus mRNA expression level (230098_at): 0.17 | Transcribed locus mRNA expression level (230177_at): 0.18 | Transcribed locus mRNA expression level (235609_at): 0.21 | Transcribed locus, moderately similar to XP_518244.1 mRNA expression level (235046_at): 0.11 | Transcribed locus, strongly similar to NP_002194.1 integrin alpha 2 precursor mRNA expression level (227314_at): 0.24 | Transcribed locus, strongly similar to NP_689873.1 mRNA expression level (228638_at): 0.16 | UNC50 mRNA expression level (203583_at): 0.10 | WBP4 mRNA expression level (203598_s_at): 0.17 | WDR26 mRNA expression level (218107_at): 0.24 | WDR67 mRNA expression level (214061_at): 0.09 | ZC3HAV1L mRNA expression level (228280_at): 0.23 | ZCCHC6 mRNA expression level (220933_s_at): 0.18 | ZKSCAN1 mRNA expression level (214670_at): 0.21 | ZMIZ1 mRNA expression level (212124_at): 0.16 | ZNF518 mRNA expression level (204291_at): 0.18 | mRNA expression level, probeset 228106_at (gene name not given): 0.21 | mRNA expression level, probeset 235436_at (gene name not given): 0.21
